# Earlier results, collected in patent publication US12194068B2, “Dietary supplement composition for treating and managing acne” (CODEX LABS CORPORATION, priority 2023, dated 2025).
# System: C. acnes
# Conditions: compared with benzoyl peroxide and erythromycin
smiles,measurement,value
Oc1ccc(C=Cc2cc(O)cc(O)c2)cc1 [resveratrol],inhibition of C. acnes proliferation,on par with benzoyl peroxide and erythromycin
